Values quoted from earlier work in US10280177B2 (ALFASIGMA S.P.A., priority 2006, dated 2019).

Conditions: in vivo

reduction of bioavailability compared to the form δ: twenty
SMILES: CO[C@H]1/C=C/O[C@@]2(C)Oc3c(C)c(O)c4c(O)c(c5c(nc6cc(C)ccn65)c4c3C2=O)NC(=O)/C(C)=C\C=C\[C@H](C)[C@H](O)[C@@H](C)[C@@H](O)[C@@H](C)[C@H](OC(C)=O)[C@@H]1C [polymorph ?, rifaximin]
